# Experiments:
# [1] = biological target: T1, angiotensin-converting enzyme (ACE) (Homo sapiens, UniProt P12821); test: ACE inhibitory activity measured with ACE Kit-WST (Dojindo Laboratories); assay type: biochemical; settings: n = 4
# T1 construct: purchased Dojindo Laboratories
# Method: The angiotensin-converting enzyme (ACE) inhibitory effect of xanthohumol was evaluated by the following procedure.
# Specifically, the ACE inhibitory activity was measured for the case where xanthohumol (produced by Gifu Shellac Manufacturing Co., Ltd.) was added as a test substance (n = 4 per level), using an ACE Kit-WST (Dojindo Laboratories) according to the instructions accompanying the kit.
# A level with addition of distilled water instead of xanthohumol was set as a control group.
# A level with no addition of xanthohumol which was measured in an ACE (enzyme)-free reaction system was set as an enzyme-free group.
# The ACE inhibitory activity (%) of the test substance was calculated using the following formula 1. Significant difference was tested between the groups (control group vs. test substance-added group) by Student's t-test (significant level: p < 0.05). ACE inhibitory activity(%); = 100 × ((absorbanceat450nmofcontrolgroup)−; (absorbance at 450 nm in test substance−added; group))/((absorbanceat450nmofcontrolgroup)−; (absorbanceat450nmofenzyme-freegroup)) [formula]
# [2] = test system: human umbilical vein endothelial cells (HUVECs, Lonza); test: Promotion of nitric oxide (NO) production from vascular endothelial cells, DAF-2 fluorescence; assay type: cell-based; settings: 24 hours, relative to control group; for Relative amount of NO released (%) Average: n = 5
# Method: The effect of xanthohumol (produced by Gifu Shellac Manufacturing Co., Ltd.) in promoting nitric oxide (NO) production from vascular endothelial cells was evaluated by the following procedure.
# Specifically, human umbilical vein endothelial cells (HUVECs, Lonza) were treated with xanthohumol for 24 hours, and the amount of nitric oxide (NO) production was measured (n = 5).
# HUVECs in a medium (EGM-2, Lonza) were seeded onto a 96-well plate at 10000 cells/0.1 mL/well, and cultured in a CO2 incubator. On the following day, the medium of a xanthohumol-added group was replaced by a medium to which xanthohumol was added; the control group was transferred to a control medium; and the positive control group was transferred to a medium containing positive control (Lovastatin, 10 µM) . Then, these groups were cultured in a CO2 incubator for additional 24 hours.
# The medium to which xanthohumol was added was prepared by dissolving xanthohumol in dimethyl sulfoxide (DMSO) and adding the solution to a medium such that the final concentration of xanthohumol was 1 µg/mL, 3 µg/mL, or 10 µg/mL. The control medium was prepared by adding DMSO to a medium to the same concentration as that in the xanthohumol-added group. The medium containing positive control was prepared by adding a solution of lovastatin in DMSO to a medium such that the final concentration of lovastatin (produced by FUJIFILM Wako Pure Chemical Corporation) was 10 µM.
# After culturing for 24 hours, diaminofluorescein-2 diacetate (DAF-2, Goryo Chemical, Inc.) was added to each medium to a final concentration of 10 µM, followed by incubation in a CO2 incubator for two hours. Subsequently, the culture supernatant was transferred to a 96-well plate (black plate), and the fluorescence intensity (ex. 495 nm, em. 515 nm) was measured. The fluorescence intensity relative to the fluorescence intensity of the control group was determined as the relative amount of NO released. Significant difference was tested between the groups (control group vs. xanthohumol-added group) by Student's t-test (significant level: p < 0.05). […]
# [3] = Xanthohumol concentration 3 µg/mL
# [4] = Xanthohumol concentration 10 µg/mL
# T1 sequence (P12821 30-1306, species assumed): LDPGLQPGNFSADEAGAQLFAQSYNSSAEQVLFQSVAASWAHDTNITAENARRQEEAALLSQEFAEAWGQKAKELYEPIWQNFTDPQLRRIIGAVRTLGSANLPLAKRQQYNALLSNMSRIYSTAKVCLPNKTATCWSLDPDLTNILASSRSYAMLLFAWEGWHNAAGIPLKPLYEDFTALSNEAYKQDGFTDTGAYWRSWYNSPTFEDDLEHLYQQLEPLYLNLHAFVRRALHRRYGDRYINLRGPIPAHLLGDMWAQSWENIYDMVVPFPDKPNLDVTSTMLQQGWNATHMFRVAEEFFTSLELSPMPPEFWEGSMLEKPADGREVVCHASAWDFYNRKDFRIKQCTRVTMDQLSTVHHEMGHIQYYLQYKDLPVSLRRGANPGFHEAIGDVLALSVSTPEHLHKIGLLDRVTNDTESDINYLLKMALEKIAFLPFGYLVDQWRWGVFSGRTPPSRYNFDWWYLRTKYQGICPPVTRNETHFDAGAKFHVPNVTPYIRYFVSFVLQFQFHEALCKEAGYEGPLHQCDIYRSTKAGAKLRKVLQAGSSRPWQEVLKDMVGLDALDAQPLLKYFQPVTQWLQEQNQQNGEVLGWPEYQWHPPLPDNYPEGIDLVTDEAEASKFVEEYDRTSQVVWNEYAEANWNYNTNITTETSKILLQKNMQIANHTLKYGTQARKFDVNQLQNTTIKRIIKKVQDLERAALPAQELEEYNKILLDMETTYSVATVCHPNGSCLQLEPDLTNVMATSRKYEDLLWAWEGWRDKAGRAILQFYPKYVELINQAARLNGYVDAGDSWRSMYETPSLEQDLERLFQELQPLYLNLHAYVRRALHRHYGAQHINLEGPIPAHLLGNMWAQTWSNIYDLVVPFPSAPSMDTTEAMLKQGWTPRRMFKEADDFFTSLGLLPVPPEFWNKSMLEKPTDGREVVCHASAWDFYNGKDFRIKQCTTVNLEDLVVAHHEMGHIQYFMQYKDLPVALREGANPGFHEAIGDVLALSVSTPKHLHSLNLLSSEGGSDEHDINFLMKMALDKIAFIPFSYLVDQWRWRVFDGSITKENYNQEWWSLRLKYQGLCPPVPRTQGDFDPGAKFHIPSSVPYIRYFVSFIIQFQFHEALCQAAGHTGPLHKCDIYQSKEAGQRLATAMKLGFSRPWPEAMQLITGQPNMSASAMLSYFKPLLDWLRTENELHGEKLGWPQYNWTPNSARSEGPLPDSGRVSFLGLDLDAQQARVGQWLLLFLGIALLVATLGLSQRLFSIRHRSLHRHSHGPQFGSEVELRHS
"inhibition at 3 µg/mL [1, 3]","inhibition at 10 µg/mL [1, 4]",inhibition at 30 µg/mL ([1]; Xanthohumol concentration 30 µg/mL),SMILES,Relative amount of NO released (%) Average ([2]; Xanthohumol concentration 1 µg/mL),"Relative amount of NO released (%) Average [2, 3]","Relative amount of NO released (%) Average [2, 4]","relative amount of NO released ([2]; Lovastatin 10 µM, average ± standard error)"
3.33%,15.8%,19.5%,COc1cc(O)c(CC=C(C)C)c(O)c1C(=O)/C=C/c1ccc(O)cc1 [Xanthohumol],108.3%,124.8%,147.5%,
,,,"CC[C@H](C)C(=O)O[C@H]1C[C@@H](C)C=C2C=C[C@H](C)[C@H](CC[C@@H]3C[C@@H](O)CC(=O)O3)[C@H]21 [positive control, Lovastatin, reference compound]",,,,122.8 ± 2.7%
